Patent publication US10800757B2, “Inhibitors of TRPC6” (Boehringer Ingelheim International GmbH, priority 2017, dated 2020)
Where a name gives a salt, the structure may show the parent alone.

Biological target: TRPC6 (Homo sapiens (Human), UniProt Q9Y210)
Test: High throughput screening assay: fluorescent calcium (Fluo4/AM) assay of TRPC6 channel activation by GSK1702934A in HEK293/TREx cells
Assay type: cell-based
Conditions: HEK293/TREx cells stably transfected with TRPC6; agonist GSK1702934A; 7 concentrations 20 μM to 0.027 μM, triplicate
Description: This screening assay measures TRPC6 (transient receptor potential cation channel, subfamily C, member 6) ion channel activation via addition either of the commercially available DAG ligand analogue OAG (1-oleoyl-2-acetyl-sn-glycerol) or of the TRPC6 agonist 1-[1-(4,5,6,7,8-pentahydrocyclohepta[2,1-d]thiophen-2-ylcarbonyl)-4-piperidyl]-3-hydrobenzimidazol-2-one (GSK1702934A). The assay utilizes a FLIPR fluorescent calcium sensor 4-(6-Acetoxymethoxy-2,7-difluoro-3-oxo-9-xanthenyl)-4′-methyl-2,2′-(ethylenedioxy)dianiline-N,N,N′,N′-tetraacetic acid tetrakis(acetoxymethyl) ester (Fluo4/AM) […]. Changes (increases) in intracellular membrane calcium concentration potential as measured by the fluorescent signal increase during membrane depolarization provide a measurement of channel activity.
The commercially available HEK293/TREx line (Invitrogen) was stably transfected with a TRPC6 construct and screened by conventional calcium imaging to find clones with TRPC6 expression following stimulation with 1 μg/ml tetracycline. These cells were maintained in the growth medium recommended by the manufacturer supplemented with 100 μg/ml hygromycin to promote retention of the TRPC6 construct. After growing to near confluency, cells were plated at a density of ^˜35,000 cells/well in 384 well CellBind plates (Corning) in the presence of 1 μg/ml tetracycline, and allowed to grow for 20-30 hrs. A nearly confluent monolayer resulted. Growth media was removed from the wells and cells were then loaded with […] Fluo4/AM diluted in Ringer's Solution (6.5 g NaCl, 0.42 g KCl, 0.25 g CaCl2) and 0.2 g of sodium bicarbonate; pH 7.4) supplemented with 1% Pluronic F-127 to a final concentration of 0.5 μM and incubated for 60 min, at room temperature. Dye solution was then removed from the cells by inverting plates with a sharp flick, and replaced with 25 μl Ringer's. Following ^˜0.5 hour for recovery from loading, cells were assayed using the Hamamatsu FDSS 6000 system, which permitted illumination at 485 nm. Frames were acquired at a rate of 0.2 Hz. During the assay, the plates were continuously vortexed, with pipette mixing of wells following addition of each reagent. For the screening assay, 26 μl of a diluted compound stock (at 50 μM) was added to each well for 2 minutes following the collection of a short (4 frame) baseline. 13 μl of agonist solution consisting of 125 nM GSK1702934A diluted in high-Ca2+Ringer solution (containing 90 mm Ca2+) was then added to each well, achieving a final concentration of 20 mm Ca2+ and 10 μM test compound. Data was collected for ^˜3 minutes following addition of high Ca2+Ringer. The fluorescent ratio for each well was divided by the initial fluorescent intensity for that well and the overall response was determined by averaging the fluorescent ratio of the last 4 frames acquired during the experiment excepting the final frame. Negative and Positive controls were included on each plate. Negative controls wells consisted of HEK293/TREx TRPC6 cells exposed to assay buffer and agonist solution, but no test compound. Positive control consisted of wells consisted of HEK293/TREx TRPC6 cells exposed to 25 μM 3-[(2-chlorophenoxy)methyl]phenyl piperidyl ketone (Chembridge) diluted in Ringer's solution and agonist solution. These controls defined zero percent and 100 percent block respectively, and intensity of each well was normalized to these values.
Compounds were tested in triplicate at all concentrations. Standard software was used to fit IC50 curves.

TRPC6, sequence (Q9Y210 whole entry, species assumed): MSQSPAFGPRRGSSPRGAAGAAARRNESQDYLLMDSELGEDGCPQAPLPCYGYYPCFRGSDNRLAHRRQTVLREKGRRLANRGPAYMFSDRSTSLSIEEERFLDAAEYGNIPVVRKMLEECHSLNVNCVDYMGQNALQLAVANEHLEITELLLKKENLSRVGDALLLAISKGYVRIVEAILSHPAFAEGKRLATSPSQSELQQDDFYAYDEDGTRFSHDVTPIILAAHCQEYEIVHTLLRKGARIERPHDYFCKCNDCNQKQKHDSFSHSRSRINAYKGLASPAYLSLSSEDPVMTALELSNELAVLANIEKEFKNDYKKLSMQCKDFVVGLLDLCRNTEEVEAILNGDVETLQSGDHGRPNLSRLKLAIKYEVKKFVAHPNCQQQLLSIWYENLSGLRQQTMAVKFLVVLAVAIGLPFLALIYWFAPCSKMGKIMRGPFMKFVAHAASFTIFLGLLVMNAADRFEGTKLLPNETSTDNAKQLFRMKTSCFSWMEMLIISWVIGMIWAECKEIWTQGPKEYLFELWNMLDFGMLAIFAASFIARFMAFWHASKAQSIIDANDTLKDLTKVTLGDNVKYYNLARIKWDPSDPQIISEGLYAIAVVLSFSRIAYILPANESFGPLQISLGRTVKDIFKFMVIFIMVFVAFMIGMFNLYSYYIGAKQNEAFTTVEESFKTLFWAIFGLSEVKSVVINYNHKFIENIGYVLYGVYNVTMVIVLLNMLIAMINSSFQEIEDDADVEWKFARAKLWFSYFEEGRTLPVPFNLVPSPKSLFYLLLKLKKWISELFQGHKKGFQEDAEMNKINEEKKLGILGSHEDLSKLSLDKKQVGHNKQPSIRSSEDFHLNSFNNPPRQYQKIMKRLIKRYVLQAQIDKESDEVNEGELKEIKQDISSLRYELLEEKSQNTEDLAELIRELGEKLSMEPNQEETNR

Structure (SMILES)	IC50
CCOc1cc(N)nnc1C1CCN(C(=O)c2cc(OC)c(Oc3ccccc3)cn2)CC1 [Compound 85, [4-(6-Amino-4-ethoxy-pyridazin-3-yl)-piperidin-1-yl]-[4-methoxy-5-(phenoxy)-pyridin-2-yl]-methanone]	0.32 µM
COc1ccc(Oc2cnc(C(=O)N3CCC(c4cc(OC)c(N)nn4)CC3)cc2OC)cc1 [Compound 60, [4-(6-Amino-5-methoxy-pyridazin-3-yl)-piperidin-1-yl]-[4-methoxy-5-(4-methoxy-phenoxy)-pyridin-2-yl]-methanone]	0.44 µM
COc1cc(C(=O)N2CCC(c3nnc(N)cc3C)CC2)ncc1OCC1CC1 [Compound 78, [4-(6-Amino-4-methyl-pyridazin-3-yl)-piperidin-1-yl]-(5-cyclopropylmethoxy-4-methoxy-pyridin-2-yl)-methanone]	2.8 µM
COc1cc(C(=O)N2CCN(c3ccc(N)nc3)C[C@@H]2CO)ncc1Oc1ccccc1 [Compound 81, [(R)-4-(6-Amino-pyridin-3-yl)-2-hydroxymethyl-piperazin-1-yl]-(4-methoxy-5-phenoxy-pyridin-2-yl)-methanone]	0.071 µM
COc1cc(C(=O)N2CCN(c3cnc(N)cc3OC)CC2)ncc1OCC1CC1 [Compound 61, [4-(6-Amino-4-methoxy-pyridin-3-yl)-piperazin-1-yl]-(5-cyclopropylmethoxy-4-methoxy-pyridin-2-yl)-methanone]	0.5 µM
COc1cc(C(=O)N2CCC(c3ccc(N)nn3)CC2)ncc1Oc1ccc(Cl)cc1 [Compound 34, [4-(6-Amino-pyridazin-3-yl)-piperidin-1-yl]-[5-(4-chloro-phenoxy)-4-methoxy-pyridin-2-yl]-methanone]	0.085 µM
COc1cc(C(=O)N2CCC(c3ccc(N)nn3)CC2)ncc1Oc1ccc(OC(C)C)cc1 [Compound 6, [4-(6-Amino-pyridazin-3-yl)-piperidin-1-yl]-[5-(4-isopropoxy-phenoxy)-4-methoxy-pyridin-2-yl]-methanone]	0.027 µM
COc1cc(C(=O)N2CCC(c3cnc(N)cc3OC)CC2)ncc1OCCc1ccccc1 [Compound 52, (6-Amino-4-methoxy-3′,4′,5′,6′-tetrahydro-2′H-[3,4′]bipyridinyl-1′-yl)-(4-methoxy-5-phenethyloxy-pyridin-2-yl)-methanone]	0.19 µM
COc1cc(C(=O)N2CCN(c3cnc(N)cc3C)C[C@@H]2CO)ncc1Oc1ccc(F)cc1 [Compound 7, [(R)-4-(6-Amino-4-methyl-pyridin-3-yl)-2-hydroxymethyl-piperazin-1-yl]-[5-(4-fluoro-phenoxy)-4-methoxy-pyridin-2-yl]-methanone]	0.027 µM
COc1ccc(Oc2cnc(C(=O)N3CCC(c4ccc(N)nc4)CC3)cc2OC)cc1 [Compound 22, (6-Amino-3′,4′,5′,6′-tetrahydro-2′H-[3,4′]bipyridinyl-1′-yl)-[4-methoxy-5-(4-methoxy-phenoxy)-pyridin-2-yl]-methanone]	0.046 µM
COc1cc(N)nnc1C1CCN(C(=O)c2ccc(Oc3ccc(C(F)(F)F)cc3)cn2)CC1 [Compound 91, 5-Methoxy-6-(1-{5-[4-(trifluoromethyl)phenoxy]pyridine-2-carbonyl}piperidin-4-yl)pyridazin-3-amine trifluoroacetic acid]	0.414 µM
COc1cc(N)ncc1N1CCN(C(=O)c2ccc(Oc3ccccc3)cn2)[C@@H]([C@H](C)O)C1 [Compound 58, (1S)-1-[(2R)-4-(6-amino-4-methoxypyridin-3-yl)-1-(5-phenoxypyridine-2-carbonyl)piperazin-2-yl]ethan-1-ol]	0.1 µM
COc1cc(C(=O)N2CCC(c3cnc(N)cc3OC)CC2)ncc1OCc1ccccc1 [Compound 43, (6-Amino-4-methoxy-3′,4′,5′,6′-tetrahydro-2′H-[3,4′]bipyridinyl-1′-yl)-(5-benzyloxy-4-methoxy-pyridin-2-yl)-methanone]	0.14 µM
CCCOc1cc(N)ncc1C1CCN(C(=O)c2cc(OC)c(Oc3ccccc3)cn2)CC1 [Compound 86, (6-Amino-4-propoxy-3′,4′,5′,6′-tetrahydro-2′H-[3,4′]bipyridinyl-1′-yl)-[5-(phenoxy)-4-methoxy-pyridin-2-yl]-methanone]	0.35 µM
CCOc1cc(C(=O)N2CCC(c3ccc(N)nn3)CC2)ncc1Oc1ccccc1 [Compound 83, [4-(6-Amino-pyridazin-3-yl)-piperidin-1-yl]-[5-(phenoxy)-4-ethoxy-pyridin-2-yl]-methanone]	0.098 µM
COc1cc(C(=O)N2CCC(c3cnc(N)cc3OC)CC2)ncc1Oc1ccc(F)cc1 [Compound 4, (6-Amino-4-methoxy-3′,4′,5′,6′-tetrahydro-2′H-[3,4′]bipyridinyl-1′-yl)-[5-(4-fluoro-phenoxy)-4-methoxy-pyridin-2-yl]methanone]	< 0.027 µM
COc1cc(C(=O)N2CCC(c3ccc(N)nn3)CC2)ncc1Oc1ccc(C(F)(F)F)cc1 [Compound 33, [4-(6-Amino-pyridazin-3-yl)-piperidin-1-yl]-[4-methoxy-5-(4-trifluoromethyl-phenoxy)-pyridin-2-yl]-methanone]	0.082 µM

More lines, now with the values ahead:

IC50	Structure (SMILES)
0.032 µM	COc1cc(C(=O)N2CCC(c3cnc(N)cc3OC)CC2)ncc1OCc1ccccc1F [Compound 19, (6-Amino-4-methoxy-3′,4′,5′,6′-tetrahydro-2′H-[3,4′]bipyridinyl-1′-yl)-[5-(2-fluoro-benzyloxy)-4-methoxy-pyridin-2-yl]-methanone]
0.094 µM	COc1cc(C(=O)N2CCC(c3cnc(N)cc3OC)CC2)ncc1OC1CCCC1 [Compound 35, (6-Amino-4-methoxy-3′,4′,5′,6′-tetrahydro-2′H-[3,4′]bipyridinyl-1′-yl)-(5-cyclopentyloxy-4-methoxy-pyridin-2-yl)-methanone]
0.351 µM	COc1cc(C(=O)N2CCC(c3cnc(N)cc3OC)CC2)ncc1OCC(C)C(F)(F)F (single isomer, unassigned) [Compound 94b, 4-Methoxy-5-(1-{4-methoxy-5-[3,3,3-trifluoro-2-methylpropoxy]pyridine-2-carbonyl}piperidin-4-yl)-pyridin-2-amine]
0.34 µM	COc1cc(C(=O)N2CCC(c3cnc(N)cc3OC)CC2)ncc1OCC(C)(C)C [Compound 59, (6-Amino-4-methoxy-3′,4′,5′,6′-tetrahydro-2′H-[3,4′]bipyridinyl-1′-yl)-[5-(2,2-dimethyl-propoxy)-4-methoxy-pyridin-2-yl]-methanone]
0.15 µM	COc1cc(C(=O)N2CCC(c3cnc(N)cc3OC)CC2)ncc1OCC1CC(F)(F)C1 [Compound 45, (6-Amino-4-methoxy-3′,4′,5′,6′-tetrahydro-2′H-[3,4′]bipyridinyl-1′-yl)-[5-(3,3-difluoro-cyclobutylmethoxy)-4-methoxy-pyridin-2-yl]-methanone]
0.635 µM	COc1cc(C(=O)N2CCC(c3cnc(N)cc3OC)CC2)ncc1OC[C@H]1C[C@H](C(F)(F)F)C1 [Compound 92, TFA salt of 4-Methoxy-5-[1-(4-methoxy-5-{[3-(trifluoromethyl)-cyclobutyl]methoxy}-pyridine-2-carbonyl)piperidin-4-yl]pyridin-2-amin]
0.11 µM	COc1cc(C(=O)N2CCC(c3cnc(N)cc3OC)CC2)ncc1OC1CCCCC1 [Compound 30, (6-Amino-4-methoxy-3′,4′,5′,6′-tetrahydro-2′H-[3,4′]bipyridinyl-1′-yl)-(5-cyclohexyloxy-4-methoxy-pyridin-2-yl)-methanone]
0.445 µM	COc1cc(C(=O)N2CCC(c3cnc(N)cc3OC)CC2)ncc1OCC1CCC1(F)F (centres unmarked) [Compound 95, 5-(1-{5-[(2,2-Difluorocyclobutyl)-methoxy]-4-methoxy-pyridine-2-carbonyl}-piperidin-4-yl)-4-methoxypyridin-2-amine]
0.13 µM	COc1cc(C(=O)N2CCC(c3cnc(N)cc3OC)CC2)ncc1OCc1ccc(F)cc1 [Compound 32, (6-Amino-4-methoxy-3′,4′,5′,6′-tetrahydro-2′H-[3,4′]bipyridinyl-1′-yl)-[5-(4-fluoro-benzyloxy)-4-methoxy-pyridin-2-yl]-methanone]
